Target: Nav 1.7 (Homo sapiens (Human), UniProt Q15858)
Test: in-vitro Nav 1.7 PX (IC50)
Type: cell-based
Conditions: not given

Nav 1.7, sequence (Q15858 whole entry): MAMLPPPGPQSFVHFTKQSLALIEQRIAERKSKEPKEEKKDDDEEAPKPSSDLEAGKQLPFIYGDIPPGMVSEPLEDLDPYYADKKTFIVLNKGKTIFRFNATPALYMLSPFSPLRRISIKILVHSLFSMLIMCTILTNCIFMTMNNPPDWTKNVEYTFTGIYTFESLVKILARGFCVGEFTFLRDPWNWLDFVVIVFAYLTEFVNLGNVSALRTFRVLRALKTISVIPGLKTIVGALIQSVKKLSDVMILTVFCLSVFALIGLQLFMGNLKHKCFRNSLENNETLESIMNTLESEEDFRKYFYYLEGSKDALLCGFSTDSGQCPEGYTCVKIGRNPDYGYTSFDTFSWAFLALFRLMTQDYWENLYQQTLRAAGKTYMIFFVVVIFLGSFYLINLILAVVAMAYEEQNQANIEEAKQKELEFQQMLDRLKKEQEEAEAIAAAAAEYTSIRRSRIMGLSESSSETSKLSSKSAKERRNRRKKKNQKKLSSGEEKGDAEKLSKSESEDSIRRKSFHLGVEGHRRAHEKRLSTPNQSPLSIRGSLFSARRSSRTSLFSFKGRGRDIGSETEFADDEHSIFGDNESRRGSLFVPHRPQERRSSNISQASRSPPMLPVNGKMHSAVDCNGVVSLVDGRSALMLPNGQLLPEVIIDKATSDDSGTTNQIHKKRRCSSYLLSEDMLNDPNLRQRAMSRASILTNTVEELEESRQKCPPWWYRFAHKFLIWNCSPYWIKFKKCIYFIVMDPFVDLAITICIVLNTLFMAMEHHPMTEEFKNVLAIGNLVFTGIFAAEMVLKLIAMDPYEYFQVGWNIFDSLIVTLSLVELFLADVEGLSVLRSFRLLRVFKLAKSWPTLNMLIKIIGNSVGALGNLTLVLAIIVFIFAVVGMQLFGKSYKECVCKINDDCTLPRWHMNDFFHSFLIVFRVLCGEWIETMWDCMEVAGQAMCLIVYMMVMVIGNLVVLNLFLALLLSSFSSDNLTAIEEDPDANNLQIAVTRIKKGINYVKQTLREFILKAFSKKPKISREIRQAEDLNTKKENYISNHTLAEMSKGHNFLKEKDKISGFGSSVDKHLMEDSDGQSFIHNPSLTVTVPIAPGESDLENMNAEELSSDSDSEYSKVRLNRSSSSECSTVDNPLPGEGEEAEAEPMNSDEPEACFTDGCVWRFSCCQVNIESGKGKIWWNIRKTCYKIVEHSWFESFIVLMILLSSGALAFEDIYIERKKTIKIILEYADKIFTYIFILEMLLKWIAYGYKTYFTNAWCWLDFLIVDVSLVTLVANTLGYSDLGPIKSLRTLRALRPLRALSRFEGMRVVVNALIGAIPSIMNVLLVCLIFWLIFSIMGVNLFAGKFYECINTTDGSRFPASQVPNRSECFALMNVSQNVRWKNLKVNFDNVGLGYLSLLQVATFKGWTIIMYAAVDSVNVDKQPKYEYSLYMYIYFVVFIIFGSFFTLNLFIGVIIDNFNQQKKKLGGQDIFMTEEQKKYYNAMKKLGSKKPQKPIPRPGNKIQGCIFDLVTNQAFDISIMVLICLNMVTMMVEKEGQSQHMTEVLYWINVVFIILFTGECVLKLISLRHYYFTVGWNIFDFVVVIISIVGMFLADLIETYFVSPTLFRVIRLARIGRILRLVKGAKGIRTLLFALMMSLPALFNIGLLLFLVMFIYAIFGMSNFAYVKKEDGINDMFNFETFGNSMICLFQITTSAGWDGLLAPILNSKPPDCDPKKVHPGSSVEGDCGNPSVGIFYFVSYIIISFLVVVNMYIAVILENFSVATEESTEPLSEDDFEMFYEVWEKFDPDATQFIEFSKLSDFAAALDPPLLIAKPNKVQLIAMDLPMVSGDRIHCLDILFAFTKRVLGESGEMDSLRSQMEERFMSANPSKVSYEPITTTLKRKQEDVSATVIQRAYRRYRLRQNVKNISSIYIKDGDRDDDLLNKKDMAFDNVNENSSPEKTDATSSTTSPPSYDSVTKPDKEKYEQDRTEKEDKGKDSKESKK

| Structure (SMILES) | IC50 [µM] |
| --- | --- |
| COc1nc(C2CC2)c(Cl)cc1-n1c(=O)ccc2cc(S(=O)(=O)Nc3ccon3)ccc21 (atropisomer, axis not shown; (M)) [Example 1229, (M)-1-(5-chloro-6-cyclopropyl-2-methoxy-3-pyridinyl)-N-3-isoxazolyl-2-oxo-1,2-dihydro-6-quinolinesulfonamide] | 17.2 |
| COc1cc(-c2ccc(C)c(F)c2)ccc1-n1c(=O)ccc2cc(S(=O)(=O)Nc3ccon3)ccc21 (atropisomer, axis not shown; (P)) [Example 576, (P)-1-(3′-fluoro-3-methoxy-4′-methyl-4-biphenylyl)-N-3-isoxazolyl-2-oxo-1,2-dihydro-6-quinolinesulfonamide] | 0.04 |
| COc1cc(-c2cccc(F)c2)c(Cl)cc1-n1c(=O)ccc2cc(S(=O)(=O)Nc3ccon3)c(F)cc21 (atropisomer, axis not shown; (P)) [Example 358, (P)-1-(2-chloro-3′-fluoro-5-methoxy-[1,1′-biphenyl]-4-yl)-7-fluoro-N-(isoxazol-3-yl)-2-oxo-1,2-dihydroquinoline-6-sulfonamide] | 4.67 |
| COc1cc(-c2cc(F)cc(Cl)c2)ccc1-n1c(=O)ccc2cc(S(=O)(=O)Nc3ccon3)ccc21 (atropisomer, axis not shown; (P)) [Example 430, (P)-1-(3′-chloro-5′-fluoro-3-methoxy-4-biphenylyl)-N-3-isoxazolyl-2-oxo-1,2-dihydro-6-quinolinesulfonamide] | 0.012 |
| COc1cc(-c2cccc(F)c2)c(C)cc1-n1c(=O)ccc2cc(S(=O)(=O)Nc3ccon3)ccc21 (atropisomer, axis not shown; (M)) [Example 428, (M)-1-(3′-fluoro-5-methoxy-2-methyl-4-biphenylyl)-N-3-isoxazolyl-2-oxo-1,2-dihydro-6-quinolinesulfonamide] | 7.59 |
| COc1nc(O[C@H]2CCCC[C@H]2C)c(Cl)cc1-n1c(=O)ccc2cc(S(=O)(=O)Nc3ccon3)ccc21 [Example 1224, 1-(5-chloro-2-methoxy-6-(((1S,2R)-2-methylcyclohexyl)oxy)-3-pyridinyl)-N-3-isoxazolyl-2-oxo-1,2-dihydro-6-quinolinesulfonamide] | 0.088 |
| COc1ccc(-c2cccc(F)c2)cc1-n1c(=O)ccc2cc(S(=O)(=O)Nc3ccon3)ccc21 (atropisomer, axis not shown; (P)) [Example 483, (P)-1-(3′-fluoro-4-methoxy-3-biphenylyl)-N-3-isoxazolyl-2-oxo-1,2-dihydro-6-quinolinesulfonamide] | 0.054 |
| COc1cc(-c2ccc(C(F)(F)F)cc2)c(F)cc1-n1c(=O)ccc2cc(S(=O)(=O)Nc3ncco3)ccc21 (atropisomer, axis not shown; (P)) [Example 636, (P)-1-(2-fluoro-5-methoxy-4′-(trifluoromethyl)-4-biphenylyl)-N-1,3-oxazol-2-yl-2-oxo-1,2-dihydro-6-quinolinesulfonamide] | 0.031 |
| COc1cc(Br)c(Cl)cc1-n1c(=O)ccc2cc(S(=O)(=O)Nc3ccon3)ccc21 (atropisomer, axis not shown; (P)) [Example 473, (P)-1-(4-bromo-5-chloro-2-methoxyphenyl)-N-(isoxazol-3-yl)-2-oxo-1,2-dihydroquinoline-6-sulfonamide] | 0.178 |
| COc1cc(C#CC2(F)CCCC2)c(F)cc1-n1c(=O)ccc2cc(S(=O)(=O)Nc3cccnn3)ccc21 (atropisomer, axis not shown; (P)) [Example 1238, (P)-1-(5-fluoro-4-((1-fluorocyclopentyl)ethynyl)-2-methoxyphenyl)-2-oxo-N-3-pyridazinyl-1,2-dihydro-6-quinolinesulfonamide] | 0.094 |

Same assay, conditions: in-vitro Nav 1.7 PX data

| Structure (SMILES) | IC50 [µM] |
| --- | --- |
| COc1ccc(-c2cc(F)cc(Cl)c2)cc1-n1c(=O)ccc2cc(S(=O)(=O)Nc3cccnn3)ccc21 [Example 902, 1-(3′-chloro-5′-fluoro-4-methoxy-3-biphenylyl)-2-oxo-N-3-pyridazinyl-1,2-dihydro-6-quinolinesulfonamide] | 0.077 |
| COc1cc(-c2ccc(OC)c(-n3c(=O)ccc4cc(S(=O)(=O)Nc5ccon5)ccc43)c2)ccc1Cl [Example 870, 1-(4′-chloro-3′,4-dimethoxy-3-biphenylyl)-N-3-isoxazolyl-2-oxo-1,2-dihydro-6-quinolinesulfonamide] | 0.023 |
| COc1cc(-c2cccc(Cl)c2C)c(F)cc1-n1c(=O)ccc2cc(S(=O)(=O)Nc3ccon3)ccc21 [Example 712, 1-(3′-chloro-2-fluoro-5-methoxy-2′-methyl-4-biphenylyl)-N-3-isoxazolyl-2-oxo-1,2-dihydro-6-quinolinesulfonamide] | 0.006 |
| COc1cc(-c2cc(F)c(F)cc2F)ccc1-n1c(=O)ccc2cc(S(=O)(=O)Nc3ccon3)ccc21 [Example 1024, N-3-isoxazolyl-2-oxo-1-(2′,4′,5′-trifluoro-3-methoxy-4-biphenylyl)-1,2-dihydro-6-quinolinesulfonamide] | 0.062 |
| COc1cc(Cl)cc(-c2cc(OC)cc(-c3cc(OC)c(-n4c(=O)ccc5cc(S(=O)(=O)Nc6ccon6)ccc54)cc3F)c2)c1 [Example 723, 1-(3″-chloro-2-fluoro-5,5′,5″-trimethoxy-1,1′:3′,1″-terphenyl-4-yl)-N-3-isoxazolyl-2-oxo-1,2-dihydro-6-quinolinesulfonamide] | 0.007 |
| COc1nc(C2CC2)c(Cl)cc1-n1c(=O)ccc2cc(S(=O)(=O)Nc3ccon3)ccc21 [640/830, 1-(5-chloro-6-cyclopropyl-2-methoxy-3-pyridinyl)-N-3-isoxazolyl-2-oxo-1,2-dihydro-6-quinolinesulfonamide] | 0.038 |
| COc1cc([C@@H]2CCOC(C)(C)C2)c(F)cc1-n1c(=O)ccc2cc(S(=O)(=O)Nc3ccon3)ccc21 [Example 1096, 1-(4-((4R)-2,2-dimethyltetrahydro-2H-pyran-4-yl)-5-fluoro-2-methoxyphenyl)-N-3-isoxazolyl-2-oxo-1,2-dihydro-6-quinolinesulfonamide, 1-(4-((4S)-2,2-dimethyltetrahydro-2H-pyran-4-yl)-5-fluoro-2-methoxyphenyl)-N-3-isoxazolyl-2-oxo-1,2-dihydro-6-quinolinesulfonamide] | 1.12 |
| COc1cc(C)ccc1-c1cc(OC)c(-n2c(=O)ccc3cc(S(=O)(=O)Nc4ccon4)ccc32)cc1F [Example 793, 1-(2-fluoro-2′,5-dimethoxy-4′-methyl-4-biphenylyl)-N-3-isoxazolyl-2-oxo-1,2-dihydro-6-quinolinesulfonamide] | 0.048 |
| COc1cc(-c2ccc(Cl)c(C)c2)ccc1-n1c(=O)ccc2cc(S(=O)(=O)Nc3ccc(F)cn3)ccc21 (atropisomer, axis not shown; (P)) [Example 689, (P)-1-(4′-chloro-3-methoxy-3′-methyl-4-biphenylyl)-N-(5-fluoro-2-pyridinyl)-2-oxo-1,2-dihydro-6-quinolinesulfonamide] | 0.05 |
| COc1ccc(-c2cc(OC)c(-n3c(=O)ccc4cc(S(=O)(=O)Nc5ccon5)ccc43)cc2F)cn1 [Example 729, 1-(5-fluoro-2-methoxy-4-(6-methoxy-3-pyridinyl)phenyl)-N-3-isoxazolyl-2-oxo-1,2-dihydro-6-quinolinesulfonamide] | 0.598 |
| COCCCOc1nc(OC)c(-n2c(=O)ccc3cc(S(=O)(=O)Nc4ccon4)ccc32)cc1Cl [Example 831, 1-(5-chloro-2-methoxy-6-(3-methoxypropoxy)-3-pyridinyl)-N-3-isoxazolyl-2-oxo-1,2-dihydro-6-quinolinesulfonamide] | 3.81 |
| COc1ccc(-c2ccc(OC)c(-n3c(=O)ccc4cc(S(=O)(=O)Nc5ccon5)ccc43)c2)cc1Cl [Example 884, 1-(3′-chloro-4,4′-dimethoxy-3-biphenylyl)-N-3-isoxazolyl-2-oxo-1,2-dihydro-6-quinolinesulfonamide] | 0.035 |
| COc1cc(-c2ccc(Cl)c(C)c2)c(F)cc1-n1c(=O)ccc2cc(S(=O)(=O)Nc3cccnn3)ccc21 (atropisomer, axis not shown; (P)) [Example 695, (P)-1-(4′-chloro-2-fluoro-5-methoxy-3′-methyl-4-biphenylyl)-2-oxo-N-3-pyridazinyl-1,2-dihydro-6-quinolinesulfonamide] | 0.012 |
| COc1cc(CC2CCCCC2)c(F)cc1-n1c(=O)ccc2cc(S(=O)(=O)Nc3ncco3)ccc21 [Example 1110, 1-(4-(cyclohexylmethyl)-5-fluoro-2-methoxyphenyl)-N-1,3-oxazol-2-yl-2-oxo-1,2-dihydro-6-quinolinesulfonamide] | 0.052 |
| COc1cc(-c2ccc(F)c(F)c2)c(F)cc1-n1c(=O)ccc2cc(S(=O)(=O)Nc3ncccn3)ccc21 [Example 935, 2-oxo-N-2-pyrimidinyl-1-(2,3′,4′-trifluoro-5-methoxy-4-biphenylyl)-1,2-dihydro-6-quinolinesulfonamide] | 0.022 |

Same assay, conditions: in-vitro Nav 1.7 PX data (PatchXpress)

| Structure (SMILES) | IC50 [µM] |
| --- | --- |
| COc1ccc(F)c(-c2ccc(-n3c(=O)ccc4cc(S(=O)(=O)Nc5ccon5)ccc43)c(OC)c2)c1 [Example 1033, 1-(2′-fluoro-3,5′-dimethoxy-4-biphenylyl)-N-3-isoxazolyl-2-oxo-1,2-dihydro-6-quinolinesulfonamide] | 0.064 |
| O=c1ccc2cc(S(=O)(=O)Nc3ccon3)ccc2n1-c1ccc(-c2cc(F)cc(F)c2)cc1C1CC1 (atropisomer, axis not shown; (P)) [Example 629, (P)-1-(3-cyclopropyl-3′,5′-difluoro-4-biphenylyl)-N-3-isoxazolyl-2-oxo-1,2-dihydro-6-quinolinesulfonamide] | 0.127 |

Same assay, conditions: in-vitro PatchXpress (PX)

| Structure (SMILES) | IC50 [µM] |
| --- | --- |
| COc1cc(-c2cccc(C#N)c2)c(F)cc1-n1c(=O)ccc2cc(S(=O)(=O)Nc3ccon3)ccc21 (atropisomer, axis not shown; (P)) [Example 498, (P)-1-(3′-cyano-2-fluoro-5-methoxy-4-biphenylyl)-N-3-isoxazolyl-2-oxo-1,2-dihydro-6-quinolinesulfonamide] | 0.034 |
| COc1cc(-c2cc(F)c(F)cc2F)c(F)cc1-n1c(=O)ccc2cc(S(=O)(=O)Nc3ccon3)ccc21 (atropisomer, axis not shown; (P)) [Example 516, (P)—N-3-isoxazolyl-2-oxo-1-(2,2′,4′,5′-tetrafluoro-5-methoxy-4-biphenylyl)-1,2-dihydro-6-quinolinesulfonamide] | > 10 |
